The record followed here is patent US6362207B1, “Methods of treating viral infections with benzimidazoles” (priority 1995, dated 2002).

Series [1] deals with Pancreas (Mia-PaCa). The series is described as follows: Pancreas (Mia-PaCa) model, tumor weight. Format: in vivo, mice. The following applies: 80 mg/kg i.p. on days 1,4,7 and 10; c1 = day 40. As to the method:
The dose response effect of carbendazim in mice infected with various cancer types was studied in standard screening tests.
The results of these studies conducted to study the dosage response of carbendazim on various cancer types are summarized below. […] Efficacy of carbendazim has been shown in the following cancers:
In the Pancreas (Mia-PaCa) model, carbendazim at 3000 and 4000 (mg/kg, twice weekly) is as good as or better than gemcitabine. At 2000 mg/kg the carbendazim was not as effective after 21 days. Gemcitabine was given on days 1,4,7 and 10 i.p.; the carbendazim was given p.o. twice weekly.

Series [2] concerns MCF-7L breast line. Briefly: MCF-7L breast line study versus Navelbine and Taxol, tumor weight. Format: in vivo, mice. To be noted: 16 mg/kg qd×5 i.p., carbendazim treatment begun on day 130; c1-c4 = day 236, 239, 245, 249.
Series [3] is classed as in vivo. The following applies: SK-MES, positive control 20 mg/kg, 5 doses. From the text: Additional in vivo cancer studies are presented in a tabular form below. The data is presented in the following format—dose regimen in parenthesis, dosage in mg/kg: tumor growth suppression (tg supp.), toxic deaths/number of test subjects (deaths), % weight change (wt).
Series [4] has as its system HIV-1 in U1 cells (promonocytic, from U937). Briefly: Additional chronic HIV studies, monocytes. Type of series: cell-based. To be noted: 60 μg/ml. As for the experimental part: (§1) Chronic HIV-1 infected cells U1 were derived from an acute HIV-1 infection of the promonocytic cell line, U937. The chronic HIV-1 infected cells, ACH-2 were derived from an acute HIV-1 infection of the T cell line, A3.01.
(§2) These cells were cultured in medium and the phorbol ester, PMA. PMA causes the cells (both U1 and ACH-2) to be activated and not divide but it also causes the U-1 cells to differentiate. […] Cell viability was measured when these cell lines were treated with the test compound.
(§3) Both cell lines constituitively produce a small amount of HIV-1. ACH-2 cell lines tend to produce more HIV-1 than U1 cells as shown by p24 ELISA. When either cell line is cultured in the presence of PMA there is an increase in the quantity of HIV-1 produced as measured by the p24 antigen ELISA.
(§4) In addition, the number of […] positive HIV mRNA expressing cells per microscopic field is measured. Comparisons can be made from these numbers since the same number of cells were adhered to the glass slides for each drug concentration 10×10^6 cells/ml).
(§5) These cells were treated with test samples. […] The positive control was interferon which suppressed HIV monocytes replication by 80%.

In series [5] the test system is herpes. Briefly: In vitro herpes model. Format: cell-based.
Series [6] relates to A549 lung tumor cells. Briefly: MTT cell viability test, lung tumor cells. The following applies: A-549, control 0.600. Type of series: cell-based, human. (Formazan colour is commonly taken as a measure of viable cells.)
The test system of series [7] is influenza. The series is described as follows: In vitro influenza model. Format: cell-based.
Series [8] deals with HIV-1 (CEM-SK1, U937-SK1, H9-SK1, U1 and ACH2 cells). The series is described as follows: HIV Virus Replication Study in chronically infected cells. Format: cell-based. As for the experimental part: Thiabendazole was tested in chronically infected HIV virus. These cell populations contain integrated copies of the HIV genome and constituitively produce HIV at relatively high levels (CEM-SK1, U937-SK1 and H9-SK1 from Frederick Research Center, Maryland) or are latently infected and only produce virus after stimulation with phorbol esters, tumor necrosis factor or IL6 (U1 and ACH2).
Toxicity to the chronically infected cells was similar to that observed with the uninfected cells.
After 28 days of treatment on chronically infected cells, the toxicity of the compound to the target cells appeared similar in both uninfected and chronically infected cells.
This reduction of virus production occurs at concentrations which are nontoxic to the host cell and which have no effect on the synthesis of cellular DNA, RNA and protein.

Series [9] deals with HIV, pretreated chronically infected cells. Format: cell-based. To be noted: irrespective of the culture conditions.
Series [10] concerns MX1 breast cancer tumors implanted subcutaneously. Briefly: Tumor growth reduction in mice models (Table 5), breast. Type of series: in vivo. To be noted: implanted subcutaneously under the mice skin.
Series [11] concerns HIV, chronically infected cells. Briefly: Reappearance of virus production from chronically infected cells previously treated. Type of series: cell-based.
The test system of series [12] is P388. The series is described as follows: P-388 model for leukemia, T/C. Format: in vivo, mice. The following applies: mouse, in vivo. From the text:
In the P-388 model for leukemia there was a dose responsive effect and the results were good.
The NCI Measure of Success is T/C=125.

The subject of series [13] is HT29 colon tumor cells. Briefly: MTT cell viability test, colon tumor cells. Type of series: cell-based, human. To be noted: HT-29, control 0.398.
Series [14] has as its system Human Tumor Colony Forming Units. Briefly: In Vitro Human Tumor Colony Forming Units Test.
Series [15] deals with HIV-1 in ACH-2 cells (T cell line A3.01). The series is described as follows: Additional chronic HIV studies, T cells. Format: cell-based. To be noted: 60 μg/ml. As for the experimental part: as §1, §2, §3, §4, §5
The test system of series [16] is herpes. The series is described as follows: In vivo herpes screening test. Set-up: species or system mice. As for the experimental part:
The positive control was acyclovir at 75 mg/kg dose; 60% of the mice survived with a mean death date of 17.2 days.

Series [17] deals with breast tumor cells (MCF-7). Briefly: Related study of tumor cell killing (optical density). Format: cell-based. The following applies: control 0.245. From the text: In a related study using lung tumor cells (A-549) breast tumor cells (MCF-7) and colon tumor cells (HT-29), thiabeadazole effectively killed these cells.
In series [18] the test system is HIV, chronically infected cells. The series is described as follows: Virus Resistance Studies. Format: cell-based. The following applies: cultures treated at 40 and 80 μg/ml.
Series [19] concerns B-16 mouse melanoma. To be noted: mouse, in vivo. As for the experimental part: The data in Tables 1, 2 and 3 are reported in T/C which is interpreted using the following scale:
long term survivors for P388 is >30 days, for B16 it is >60 days. The NCI Measure of Success is T/C=125.
This study was performed in black mice injected i.p. with B-16 mouse melanoma which many researchers believe is the most predictive model for efficacy in humans. […] Death is the end point in this model.

Series [20] deals with influenza. The series is described as follows: In vivo model for influenza. Set-up: species or system mice. As for the experimental part: The positive control was amantadine (75 mg/kg) with 100% of the mice surviving for 21 days. 2-(Methoxycarbonylamino)benzimidazole was not active in the same test.
The test system of series [21] is HIV. Briefly: microbe, parasite or virus in culture. Format: cell-based. To be noted: Human immunodeficiency virus 1; 60 μg/ml; read-out: inhibition of viral replication.

In the case of `Nc1ccn([C@@H]2O[C@H](CO)[C@@H](O)C2(F)F)c(=O)n1` [Gemcitabine, reference compound], the tumor weight in series [1] was 503.7 mg.
In turn, `CC(=O)O[C@H]1C(=O)[C@@]2(C)[C@H]([C@H](OC(=O)c3ccccc3)[C@]3(O)C[C@H](OC(=O)[C@H](O)[C@@H](NC(=O)c4ccccc4)c4ccccc4)C(C)=C1C3(C)C)[C@]1(OC(C)=O)CO[C@@H]1C[C@@H]2O` [Taxol] showed a tumor weight in series [2] of 0 mg. In addition, in series [3], the “% weight change (wt)” value is recorded as “+1%”, the “toxic deaths/number of test subjects (deaths)” value was 0/10 and the “tumor growth suppression (tg supp.)” value is 75%.
Turning to `c1ccc2[nH]c(-c3cscn3)nc2c1` [thiabendazole, 2-(4-thiazolyl)-1-H-benzimidazole], in series [4], the “suppression of replication in the HIV monocytes” value was 74%. For the same molecule, the activity entry in series [5] and in series [7] was “no activity” throughout. Moreover, the “Optical Density” value in series [6] (0.87 ppm) is reported as 1.32; in series [6] (3.46 ppm), 1.12; in [6] (17.3 ppm) it was 0.851; in series [6] (35 ppm), 0.411; in [6] (173 ppm) it was 0.007; in [13] (0.87 ppm), 0.852. Further, the “Optical Density” value in [13] (3.46 ppm) amounted to 0.713; in [13] (17.3 ppm), 0.204; in series [13] (35 ppm) it was 0.011; in series [13] (173 ppm), 0.005; in [17] (0.87 ppm), 0.507; in [17] (3.46 ppm), 0.466. The “Optical Density” value in [17] (17.3 ppm) is given as 0.258; in series [17] (35 ppm), 0.025; in series [17] (173 ppm), 0.007. For the same molecule, the “concentration at which stable reductions in virus production were observed” value in [8] (after 28 days of treatment) is “greater than 10 μg/ml”. Further, the “concentrations that inhibited virus production” value in [8] (chronically infected cells) fell in the range of 1 to 10 µg/mL. In series [9], the “virus production from pretreated cell populations, Groups 1-3” value is given as “identical”. Also, the “activity against MX1 breast cancer tumors” value in [10] is “no activity”. In addition, the “day by which virus production resumed after washing free of compound” value in series [11] (40 μg/ml) was at most 12 days. In addition, the “day at which virus production was observed after washing free of compound” value in series [11] (highest concentrations) was about 70 days. Moreover, the “time until virus production resumed after washing free of compound” value in [11] (lower concentrations (20 μg/ml and 4 μg/ml)) is at most 4 days. Also, in [12], the “activity against P388” value is “no activity”. The “positive results / tumors tested” value in series [14] (1 Hour Exposure, 0.5 μg/ml) is listed as 0/3; in series [14] (1 Hour Exposure, 5.0 μg/ml), 0/3; in series [14] (1 Hour Exposure, 50.0 μg/ml), 0/3; in [14] (Continuous Exposure, 0.5 μg/ml), 1/10; in [14] (Continuous Exposure, 5.0 μg/ml) it was 2/10; in series [14] (Continuous Exposure, 50.0 μg/ml), 7/10. Besides, the “increase of T-cell HIV replication” value in [15] worked out at 26%. Further, the mean death date turned out to be 9.2 in series [16] (100 mg/kg), 10.4 in [16] (200 mg/kg), 8.7 days in [20] (100 mg/kg) and 8 days in series [20] (200 mg/kg). Moreover, the mice survived in series [16] (100 mg/kg) is recorded as 50%; in [16] (200 mg/kg) it was 10%; in [20] (100 mg/kg), 62%; in series [20] (200 mg/kg), 67%. The virus production entry in series [18] is recorded as “totally suppressed”. The “activity against B16” value in [19] is given as “no activity”. Besides, the inhibition (commonly the share of the control response that was lost under treatment) at 60 µg/mL in series [21] came out at 98%.
